Assay results taken from patent publication US20220220135A1 (BAR-ILAN UNIVERSITY, priority 2019, published 2022).

Assays:
human NPP3 = molecular target: T1, human NPP3 (Homo sapiens, UniProt O14638); test: Inhibition of human NPP3, pNP-TMP as substrate (analogues 9-12); type: biochemical; conditions: analogue at 100 μM; pNP-TMP 100 μM as substrate
T1 sequence (O14638 1-875): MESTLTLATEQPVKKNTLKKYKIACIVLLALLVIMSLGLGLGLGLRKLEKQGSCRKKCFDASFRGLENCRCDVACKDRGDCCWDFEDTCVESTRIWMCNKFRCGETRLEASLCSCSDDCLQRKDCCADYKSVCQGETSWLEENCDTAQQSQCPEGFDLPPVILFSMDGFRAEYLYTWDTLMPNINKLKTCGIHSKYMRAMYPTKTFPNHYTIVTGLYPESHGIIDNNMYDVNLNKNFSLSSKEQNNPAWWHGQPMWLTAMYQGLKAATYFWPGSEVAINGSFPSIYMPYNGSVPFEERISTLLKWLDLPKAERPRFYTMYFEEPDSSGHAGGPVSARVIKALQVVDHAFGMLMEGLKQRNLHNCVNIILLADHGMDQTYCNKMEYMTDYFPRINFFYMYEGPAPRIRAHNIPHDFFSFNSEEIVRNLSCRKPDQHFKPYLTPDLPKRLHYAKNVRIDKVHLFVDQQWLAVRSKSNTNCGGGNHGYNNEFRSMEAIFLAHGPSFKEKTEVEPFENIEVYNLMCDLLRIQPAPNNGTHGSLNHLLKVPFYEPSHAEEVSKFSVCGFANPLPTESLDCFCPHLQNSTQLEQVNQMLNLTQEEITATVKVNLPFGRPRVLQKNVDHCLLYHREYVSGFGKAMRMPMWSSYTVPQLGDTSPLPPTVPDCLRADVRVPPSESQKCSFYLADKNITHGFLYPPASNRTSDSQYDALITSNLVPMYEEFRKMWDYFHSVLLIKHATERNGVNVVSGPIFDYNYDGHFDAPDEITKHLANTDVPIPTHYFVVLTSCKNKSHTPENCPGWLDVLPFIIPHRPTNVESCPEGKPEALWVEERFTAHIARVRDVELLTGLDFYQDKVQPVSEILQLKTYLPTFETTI
Method: FIG. 2: Inhibition of NTPDases and NPPs by analogues 9-12 using as substrates ATP (100 μM) for NTPDase1,2,3,8 and pNP-TMP (100 μM) for NPP1,3 (Panel A); and ATP (100 μM) was used as the substrate for NPP1 (Panel B);
At least 2 independent experiments were performed. In panel A, the activity with 100 μM ATP was set as 100%, which was 287±31, 395±67, 278±22, 119±26 nmol of Pi·min−1·mg of protein−1 for human NTPDase1, -2, -3 and -8, respectively, and the activity with 100 μM pNP-TMP was set as 100% which was 67±5, 21±1 nmol of p-nitrophenol·min−1·mg of protein−1 for human NPP1 and NPP3, respectively. In panel B, the activity with 100 μM ATP was set as 100% which was 34±7 nmol of PPi·min−1·mg of protein−1 for NPP1.

NTPDase2 = molecular target: T2, NTPDase2 (Homo sapiens, UniProt Q9Y5L3); test: Stability to hydrolysis by human NTPDase2; type: in vitro ADME; conditions: analogue 100 μM; activity with 100 μM ATP = 100%
T2 sequence (Q9Y5L3 1-495): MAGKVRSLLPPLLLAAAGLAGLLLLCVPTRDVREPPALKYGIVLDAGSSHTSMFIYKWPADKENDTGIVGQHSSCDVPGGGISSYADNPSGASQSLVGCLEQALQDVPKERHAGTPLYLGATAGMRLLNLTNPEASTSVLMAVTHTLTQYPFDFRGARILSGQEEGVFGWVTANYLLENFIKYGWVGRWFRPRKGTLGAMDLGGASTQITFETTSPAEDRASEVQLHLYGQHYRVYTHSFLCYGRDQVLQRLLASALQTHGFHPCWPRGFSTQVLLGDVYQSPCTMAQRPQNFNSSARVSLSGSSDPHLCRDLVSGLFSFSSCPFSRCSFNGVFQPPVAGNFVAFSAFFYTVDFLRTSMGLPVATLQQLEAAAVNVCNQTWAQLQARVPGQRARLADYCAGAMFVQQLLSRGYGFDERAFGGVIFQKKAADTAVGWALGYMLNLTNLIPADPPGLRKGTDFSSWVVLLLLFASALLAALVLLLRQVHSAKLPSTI
Method: (§1) Uridine 5′-Pα,α-phosphorodithioate analogues, 9-12, were tested for their stability to degradation by NPP1 and NTPDases. These enzymes are involved in the metabolism of extracellular nucleotides. Analogues 9-12 were not hydrolyzed by hNPP1 (Table 2). […] Analogue 10 was hydrolyzed by hNTPDase1, -2 and -3 at 30-39% the rate of ATP and was slightly hydrolyzed by human NTPDase8 at 16% the rate of ATP.
(§2) Analogues 9-12 were incubated in the presence of the indicated ectonucleotidase at a concentration of 100 μM. The activity with 100 μM ATP was set as 100%, which was 329±108, 302±34, 263±51, 195±76 nmol of Pi·min−1·mg of protein−1 for NTPDase1, -2, -3 and -8, respectively, and 34±7 nmol for NPP1. Data presented are the mean±SEM of results from two experiments.

NTPDase1 = molecular target: T3, NTPDase1 (Homo sapiens, UniProt P49961); test: Stability to hydrolysis by human NTPDase1; type: in vitro ADME; conditions: analogue 100 μM; activity with 100 μM ATP = 100%
T3 sequence (P49961 1-510): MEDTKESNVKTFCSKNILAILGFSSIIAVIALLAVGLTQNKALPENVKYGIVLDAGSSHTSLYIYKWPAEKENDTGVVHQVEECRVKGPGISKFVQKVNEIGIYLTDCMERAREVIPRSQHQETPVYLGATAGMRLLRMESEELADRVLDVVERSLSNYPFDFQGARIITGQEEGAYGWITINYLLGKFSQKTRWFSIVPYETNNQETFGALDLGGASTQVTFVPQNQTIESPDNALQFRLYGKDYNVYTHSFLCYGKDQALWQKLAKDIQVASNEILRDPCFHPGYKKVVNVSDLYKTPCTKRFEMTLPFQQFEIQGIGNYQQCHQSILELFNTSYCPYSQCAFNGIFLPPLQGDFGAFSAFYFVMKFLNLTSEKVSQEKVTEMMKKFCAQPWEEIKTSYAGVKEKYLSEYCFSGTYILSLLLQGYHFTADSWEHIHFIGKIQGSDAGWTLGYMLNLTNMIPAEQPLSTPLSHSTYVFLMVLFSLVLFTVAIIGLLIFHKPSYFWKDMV
Method: as §1, §2

SMILES | inhibition at 100 µM (human NPP3) [%] | inhibition of human NPP3 (human NPP3) | Relative activity (%) ± SEM of ATP hydrolysis, NTPDase2 (NTPDase2) [%] | Relative activity (%) ± SEM of ATP hydrolysis, NTPDase1 (NTPDase1) [%]
O=c1ccn([C@@H]2O[C@H](COP(=S)(S)OP(=O)(O)OP(=O)(O)OP(=S)(S)OC[C@H]3O[C@@H](n4ccc(=O)[nH]c4=O)[C@H](O)[C@@H]3O)[C@@H](O)[C@H]2O)c(=O)[nH]1 (some centres unmarked) [Analogue 12] | 27 | – | – | –
O=c1ccn([C@@H]2O[C@H](COP(=S)(S)OP(=O)(O)CP(=O)(O)O)[C@@H](O)[C@H]2O)c(=O)[nH]1 (some centres unmarked) [Analogue 11] | 21 | – | – | –
O=c1ccn([C@@H]2O[C@H](COP(=S)(S)OP(=O)(O)OP(=O)(O)O)[C@@H](O)[C@H]2O)c(=O)[nH]1 (some centres unmarked) [Analogue 10] | – | no inhibition | 32.0 ± 3.3 | 30.8 ± 3.2
